# Laboratory results: paper PMC11784026, “Phase 1 study of the safety, tolerability, and pharmacokinetics of a synthetic macrocyclic peptide antibiotic (BRII-693) in healthy adult participants” (Antimicrobial Agents and Chemotherapy, 2024)
# Where two headings read alike, the source gives them in different places. Where a SMILES comes first, the peptide text is derived from it. Bridges are numbered along the chain shown (N, C = ends). [ ]: non-standard residue; d: D form. The star is where a group is joined. X1 = O=C(c1ccc(Cl)cc1Cl)*; Dab = NCC[C@H](N)C(=O)O; Abu = CC[C@H](N)C(=O)O; Dap = NC[C@H](N)C(=O)O
# How the values were obtained:
# [1] = Protocol: During the MAD phase of the study, repeat dosing of 100, 150, and 200 mg of BRII-693 was evaluated in sequential cohorts (cohorts 8–10) composed of eight participants each (six active; two placebo). Participants first received a single dose of BRII-693 or placebo as a 1-hour IV infusion on day 1; and then 48 hours later on day 3 through day 9, participants received BRII-693 or placebo every 6 hours (q6h) for 7 days, with the last dose in the morning on day 9. Participants were discharged on day 11. In the remaining two MAD cohorts (cohorts 11 and 12), repeat dosing of 150 mg of BRII-693 q6h for 14 days was evaluated in non-Chinese and Chinese (first and second generation) participants. Each cohort comprises 12 participants (10 active and 2 placebo). The last dose was in the morning on day 14, and participants were discharged on day 17.
# For the 7-day MAD cohorts 8–10, blood samples were collected (i) on day 1 before dosing and at 0.5, 1, 1.25, 1.5, 2, 4, 6, 8, 12, 24, 36, and 48 hours following the start of dosing infusion; (ii) on day 3 prior to the morning dose and at 0.5, 1, 1.25, 1.5, 2, 4, and 6 hours after the start of the first dosing infusion; (iii) on day 9 before dosing and at 0.5, 1, 1.25, 1.5, 2, 4, 6, 8, 12, 24, 36, and 48 hours following the start of the last dosing infusion in the morning. Urine samples were collected before dosing and at the time intervals of 0–4, 4–8, 8–12, 12–24, 24–36, and 36–48 hours after the start of dosing infusion on days 1 and 9.
# For the 14-day MAD cohorts 11 and 12, blood samples were collected (i) on day 1 prior to and at 0.5, 1, 1.25, 1.5, 2, 4, and 6 hours after the start of the first dosing infusion and (ii) on day 14 before dosing and at 0.5, 1, 1.25, 1.5, 2, 4, 6, 8, 12, 24, 36, 48, 60, and 72 hours following the start of the last dosing infusion in the morning. Urine samples were collected before dosing and at the time intervals of 0–4, 4–8, 8–12, 12–24, 24–36, 36–48, and 48–72 hours after the start of dosing infusion on Day 14.
# All blood samples were collected into EDTA-containing vials, immediately placed on ice, and centrifuged at 3,000× g for approximately 10 minutes at 4°C. Supernatant plasma was transferred to two pre-chilled cryopreservation vials (at least 1.0 mL per vial) and stored at −80°C until shipped to the analytical laboratory. Urine samples collected for each time interval were refrigerated, aliquoted, and stored at −80°C until shipped to the analytical laboratory. Plasma and urine samples were analyzed for BRII-693 concentrations using validated high-performance liquid chromatography with detection by mass spectrometry method (BioAgilytix, San Diego, CA). The assay range was 50.0–50,000 ng/mL in both plasma and urine.
# Area under the concentration-time curve (AUC) from time zero to the time of the last quantifiable concentration (AUC0–last), AUC from time zero to infinity (AUC0–inf), AUC within a dosing interval of 6 hours (AUC0–6h), maximum observed concentration (Cmax), time to reach maximum concentration (Tmax), apparent terminal half-life (t1/2), total clearance (CL), volume of distribution during terminal phase (Vz), and accumulation ratio based on AUC (ARAUC) were determined for BRII-693 in plasma. Urine parameters included amount and percentage of dose recovered in urine as unchanged drug over each collection interval and cumulatively and renal clearance (CLR). PK parameters were determined using noncompartmental methods in Phoenix WinNonlin (Certara, Version 8.3).
# Remark: listed apart in the source
smiles,measurement,setting,value
CC[C@@H]1NC(=O)[C@@H](CC(C)C)NC(=O)[C@H](CCN)NC(=O)[C@@H](NC(=O)[C@H](CN)NC(=O)[C@@H](NC(=O)[C@H](CCN)NC(=O)c2ccc(Cl)cc2Cl)[C@@H](C)O)CCNC(=O)[C@H]([C@@H](C)O)NC(=O)[C@H](CCN)NC(=O)[C@H](CCN)NC1=O [BRII-693] (X1-[Dab]T[Dap][Dab][Dab][dL][Abu][Dab][Dab]T; lactam 4-C; N-terminus assumed),CLR,"[1]; Last q6h dose (day 9), 7-day MAD 100 mg q6h × 7, renal clearance, n = 6, arithmetic mean ± SD",1.40 ± 0.60 L/h
same,fe0–48h,"[1]; Last q6h dose (day 9), 7-day MAD 100 mg q6h × 7, urinary recovery over 48 h, n = 6, arithmetic mean ± SD",66.5 ± 18.0%
same,CLR,"[1]; Last q6h dose (day 9), 7-day MAD 150 mg q6h × 7, renal clearance, n = 5, arithmetic mean ± SD",1.60 ± 0.60 L/h
same,fe0–48h,"[1]; Last q6h dose (day 9), 7-day MAD 150 mg q6h × 7, urinary recovery over 48 h, n = 5, arithmetic mean ± SD",57.2 ± 19.2%
same,CLR,"[1]; Last q6h dose (day 9), 7-day MAD 200 mg q6h × 7, renal clearance, n = 5, arithmetic mean ± SD",1.41 ± 0.23 L/h
same,fe0–48h,"[1]; Last q6h dose (day 9), 7-day MAD 200 mg q6h × 7, urinary recovery over 48 h, n = 5, arithmetic mean ± SD",74.3 ± 30.3%
same,CLR,"[1]; Last q6h dose (day 14), 14-day MAD 150 mg q6h × 14, Chinese, renal clearance, n = 6, arithmetic mean ± SD",1.67 ± 0.43 L/h
same,fe0–48h,"[1]; Last q6h dose (day 14), 14-day MAD 150 mg q6h × 14, Chinese, urinary recovery over 48 h, n = 6, arithmetic mean ± SD",70.9 ± 22.0%
same,CLR,"[1]; Last q6h dose (day 14), 14-day MAD 150 mg q6h × 14, non-Chinese, renal clearance, n = 10, arithmetic mean ± SD",1.91 ± 0.79 L/h
same,fe0–48h,"[1]; Last q6h dose (day 14), 14-day MAD 150 mg q6h × 14, non-Chinese, urinary recovery over 48 h, n = 10, arithmetic mean ± SD",74.1 ± 25.6%
same,Urinary recovery compared with polymyxin B,[1]; comparison with literature polymyxin B data (ref 11),higher urinary recovery than polymyxin B
same,Participants reporting AEs,"7-day MAD cohorts 8–10, after multiple dosing, all BRII-693-treated (5 of 17)",29.4%
same,Participants reporting AEs,"7-day MAD cohorts 8–10, after single dosing on day 1, all BRII-693-treated (3 of 17)",17.6%
same,"Participants who discontinued the study due to treatment-related AE (headache, moderate)","7-day MAD, 200 mg, after the single dose on day 1 (One of 6)",16.7%
same,Participants reporting AEs,"7-day MAD, after multiple dosing, 100 mg q6h (2 of 6)",33.3%
same,Participants reporting AEs,"7-day MAD, after multiple dosing, 200 mg q6h (3 of 6)",50.0%
same,Participants reporting AEs,"7-day MAD, after single dosing on day 1, 150 mg (1 of 5)",20.0%
same,Participants reporting AEs,"7-day MAD, after single dosing on day 1, 200 mg (2 of 6)",33.3%
same,Participants reporting AEs,"SAD phase, 100 mg (1 of 6)",16.7%
same,Participants reporting AEs,"SAD phase, 200 mg (1 of 6)",16.7%
same,Severity of AEs,"SAD phase, all AEs (five events, placebo included)",mild in severity
same,Participants reporting AEs,"SAD phase, all BRII-693-treated participants (2 of 41)",4.9%
same,Participants reporting AEs,"cohort 11, 150 mg q6h × 14 days, non-Chinese (5 of 10)",50.0%
same,Participants reporting AEs,"cohort 12, 150 mg q6h × 14 days, Chinese (Five of the 10)",50.0%
same,Overall safety and tolerability,"in vivo, iv",safe and well tolerated
